Test results taken from patent publication US12570656B2, “Purine compounds for treating disorders” (MARVEL BIOTECHNOLOGY, priority 2020, dated 2026).
pIC50: −log10 of the molar value. Several values for one entry are separate records, joined by “and”; a condition that tells them apart may be missing. Equal entries are not always repeated. Where two headings read alike, the source gives them in different places.

Legend:
[1] = Plasma pharmacokinetics in male CD-1 mice (1 mg/kg i.v. or 3 mg/kg p.o.); settings: CD-1, mouse, in vivo
Method: (§1) Male CD-1 mice were given either bolus 1 mg/kg i.v. or 3 mg/kg p.o. of the indicated compounds and plasma or brain concentrations were measured.
(§2) Where: • C0 concentration extrapolated to time zero following an i.v. dose • tmax time at which maximum concentration is observed • Cmax maximum observed concentration • Apparent t1/2 apparent terminal half-life • AUC0-tlast area under the concentration vs time curve from time 0 to the time of the last measurable concentration • AUC0-inf area under the concentration vs time curve from time 0 to infinity • CL systemic clearance • MRT0-inf mean residence time from time zero to infinity • Vss steady-state volume of distribution • F oral bioavailability=(Dose^iv*AUC^po)/(Dose^po*AUC^iv)*100

[2] = Brain pharmacokinetics and brain/plasma ratio in male CD-1 mice (1 mg/kg i.v.); type: in vivo; settings: for Brain concentration / Brain/plasma concentration ratio / Kp at 5 min / Kp at 0.25 h / Kp at 0.5 h / Kp at 8 h / concentration at 5 min / concentration at 0.25 h / concentration at 0.5 h / concentration at 1 h / concentration at 2 h / concentration at 4 h / concentration at 6 h / concentration at 8 h / Kp at 1 h / Kp at 2 h / Kp at 4 h / Kp at 6 h: 1 mg/kg bolus i.v.; for Brain/plasma concentration ratio: listed as 1a; for Kp at 5 min / Kp at 0.25 h / Kp at 0.5 h / Kp at 8 h: brain and plasma; for concentration at 5 min / concentration at 0.25 h / concentration at 0.5 h / concentration at 1 h / concentration at 2 h / concentration at 4 h / concentration at 6 h / concentration at 8 h: intravenous
Method: as §1, §2

ADORA2A = ADORA2A (Homo sapiens, UniProt P29274); assay: GPCR screening, calcium flux (calcium mobilization), antagonist format; type: cell-based
ADORA2A, sequence (P29274 whole entry): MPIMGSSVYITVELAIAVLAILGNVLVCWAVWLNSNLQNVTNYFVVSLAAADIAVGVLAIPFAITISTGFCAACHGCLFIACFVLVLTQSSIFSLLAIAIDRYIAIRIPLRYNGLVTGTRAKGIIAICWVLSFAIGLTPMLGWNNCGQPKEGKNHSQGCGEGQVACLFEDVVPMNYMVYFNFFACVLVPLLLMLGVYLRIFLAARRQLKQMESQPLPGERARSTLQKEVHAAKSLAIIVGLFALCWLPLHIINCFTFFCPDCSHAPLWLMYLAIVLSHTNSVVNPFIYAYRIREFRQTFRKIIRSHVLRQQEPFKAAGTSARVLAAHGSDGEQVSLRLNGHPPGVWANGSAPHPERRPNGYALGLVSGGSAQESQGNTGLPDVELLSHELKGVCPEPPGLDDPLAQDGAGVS
Method: To ascertain whether the compounds are suitable A2aR antagonists, the compounds of formulae I, II, III, and IV were subjected to GPCR screening using A2aR as the target. The screening was done using the GPCR Screening and Profiling Services by Eurofins DiscoverX Corporation.
The compounds of formulae I, II, III, and IV were screened for GPCR activity using A2aR as the target.
Cell lines were expanded from freezer stocks according to standard procedures. Cells were seeded in a total volume of 20 μL into black-walled, clear-bottom, Poly-D-lysine coated 384-well microplates and incubated at 37° C. for the appropriate time prior to testing.
Assays were performed in 1× Dye Loading Buffer consisting of 1× Dye, 1× Additive A and 2.5 mM Probenecid in HBSS/20 mM Hepes. Probenicid was prepared fresh. Cells were loaded with dye prior to testing. Media was aspirated from cells and replaced with 20 μL Dye Loading Buffer. Cells were incubated for 30-60 minutes at 37° C.
For antagonist determination, cells were pre-incubated with sample followed by agonist challenge at the EC80 concentration. Intermediate dilution of sample stocks was performed to generate 3× sample in assay buffer. After dye loading, cells were removed from the incubator and 10 μL 3× sample was added. Cells were incubated for 30 minutes at room temperature in the dark to equilibrate plate temperature. Vehicle concentration was 1%. Compound antagonist activity was measured on a FLIPR Tetra (MDS). Calcium mobilization was monitored for 2 minutes and 10 μL EC80 agonist in HBSS/20 mM Hepes was added to the cells 5 seconds into the assay.
For antagonist and negative allosteric modulation mode assays, percentage inhibition is calculated using the following formula: % Inhibition=100%×(1−(mean RFU of test sample−mean RFU of vehicle control)/(mean RFU of EC80 control−mean RFU of vehicle control)).
When the calcium was released, the fluorescence of the dye was increased and the increase was measured in real-time.
FIGS. 1 to 6 show percent reacted (Y) versus concentration in μM (X). Compounds were tested in antagonist mode with the requested GPCR Biosensor Assay. For the antagonist assay, data was normalized to the maximal and minimal response observed in the presence of EC80 ligand and vehicle.

[3] = male, CD-1, mouse, iv, brain, i.v. 1 mg/kg

Compound `CCn1c(=O)c2c(nc(/C=C/c3ccc(OC(F)F)c(OC(F)F)c3)n2C)n(CC)c1=O` [Formula I, 8-[(E)-2-[3,4-bis(difluoromethoxy)phenyl]vinyl]-1,3-diethyl-7-methyl-purine-2,6-dione;hydrofluoride] has a bioavailability [1] of 76%, an AUC(0-inf) ([1]; iv, 1 mg/kg) of 3240 ng·h/mL and an AUC(0-t) ([1]; iv, 1 mg/kg) of 2040 ng·h/mL. The C0 ([1]; iv, 1 mg/kg) was 1220 ng/mL, the Cmax ([1]; iv, 1 mg/kg) was 990 ng/mL and the MRT inf ([1]; iv, 1 mg/kg) was 8.02 h. The Tmax ([1]; iv, 1 mg/kg) was 0.0833 h, the Vd ([1]; iv, 1 mg/kg) was 2.47 L/kg and the clearance ([1]; iv, 1 mg/kg) was 5.13 mL/min/kg. The half-life ([1]; iv, 1 mg/kg) was 6 h, the AUC(0-inf) ([1]; po, 3 mg/kg) was 5090 ng·h/mL and the AUC(0-t) ([1]; po, 3 mg/kg) was 4650 ng·h/mL. It also gave a Cmax ([1]; po, 3 mg/kg) of 424 ng/mL, an MRT inf ([1]; po, 3 mg/kg) of 11.1 h and a Tmax ([1]; po, 3 mg/kg) of 4 h. The half-life ([1]; po, 3 mg/kg) was 6.52 h, the Brain concentration ([2]; 5 min, individual animals 1-3) was 851 ng/g and 682 ng/g and the Brain/plasma concentration ratio ([2]; 5 min, individual animals 1-3) was 0.867 and 0.751. The Brain concentration ([2]; 0.25 h, individual animals 1-3) was 426 ng/g and 665 ng/g, the Brain/plasma concentration ratio ([2]; 0.25 h, individual animals 1-3) was 0.789 and 0.795 and the Brain concentration ([2]; 0.5 h, individual animals 1-3) was 282 ng/g and 381 ng/g. The Brain/plasma concentration ratio ([2]; 0.5 h, individual animals 1-3) was 0.535 and 0.779, the Brain concentration ([2]; 1 h, individual animals 1-3) was 318 ng/g and 175 ng/g and the Brain/plasma concentration ratio ([2]; 1 h, individual animals 1-3) was 0.763 and 0.550. For the same compound, the Brain concentration ([2]; 2 h, individual animals 1-3) was 195 ng/g and 185 ng/g, the Brain/plasma concentration ratio ([2]; 2 h, individual animals 1-3) was 0.739 and 0.661 and the Brain concentration ([2]; 4 h, individual animals 1-3) was 158 ng/g and 198 ng/g. The Brain/plasma concentration ratio ([2]; 4 h, individual animals 1-3) was 0.745 and 0.783, the Brain concentration ([2]; 6 h, individual animals 1-3) was 138 ng/g and 122 ng/g and the Brain/plasma concentration ratio ([2]; 6 h, individual animals 1-3) was 0.683 and 0.758. For the same compound, the Brain concentration ([2]; 8 h, individual animals 1-3) was 118 ng/g and 114 ng/g, the Brain/plasma concentration ratio ([2]; 8 h, individual animals 1-3) was 0.771 and 0.809 and the AUC0-tlast ([2]; brain, i.v. 1 mg/kg) was 1,447 h*ng/g. The AUC(0-inf) ([2]; brain, i.v. 1 mg/kg) was 2807^a h*ng/g, the Kp at 5 min ([2]; male, CD-1, mouse, iv, 1 mg/kg, 5 min, individual animals 1-3, read-out: Brain/plasma concentration ratio) was 0.757 and the Kp at 5 min ([2]; male, CD-1, mouse, iv, 1 mg/kg, 5 min, read-out: Brain/plasma concentration ratio, Mean) was 0.792. It also gave a Kp at 0.25 h ([2]; male, CD-1, mouse, iv, 1 mg/kg, 0.25 h, individual animals 1-3, read-out: Brain/plasma concentration ratio) of 0.635, a Kp at 0.25 h ([2]; male, CD-1, mouse, iv, 1 mg/kg, 0.25 h, read-out: Brain/plasma concentration ratio, Mean) of 0.74 and a Kp at 0.5 h ([2]; male, CD-1, mouse, iv, 1 mg/kg, 0.5 h, individual animals 1-3, read-out: Brain/plasma concentration ratio) of 0.731. For the same compound, the Kp at 0.5 h ([2]; male, CD-1, mouse, iv, 1 mg/kg, 0.5 h, read-out: Brain/plasma concentration ratio, Mean) was 0.682, the Kp at 8 h ([2]; male, CD-1, mouse, iv, 1 mg/kg, 8 h, individual animals 1-3, read-out: Brain/plasma concentration ratio) was 0.902 and the Kp at 8 h ([2]; male, CD-1, mouse, iv, 1 mg/kg, 8 h, read-out: Brain/plasma concentration ratio, Mean) was 0.827. For the same compound, the concentration at 5 min ([2]; male, CD-1, mouse, brain, 1 mg/kg, 5 min, individual animals 1-3, read-out: Brain concentration) was 818 ng/g, the concentration at 5 min ([2]; male, CD-1, mouse, brain, 1 mg/kg, 5 min, read-out: Brain concentration, Mean) was 784 ng/g and the concentration at 0.25 h ([2]; male, CD-1, mouse, brain, 1 mg/kg, 0.25 h, individual animals 1-3, read-out: Brain concentration) was 373 ng/g. The concentration at 0.25 h ([2]; male, CD-1, mouse, brain, 1 mg/kg, 0.25 h, read-out: Brain concentration, Mean) was 488 ng/g, the concentration at 0.5 h ([2]; male, CD-1, mouse, brain, 1 mg/kg, 0.5 h, individual animals 1-3, read-out: Brain concentration) was 377 ng/g and the concentration at 0.5 h ([2]; male, CD-1, mouse, brain, 1 mg/kg, 0.5 h, read-out: Brain concentration, Mean) was 347 ng/g. It also gave a concentration at 1 h ([2]; male, CD-1, mouse, brain, 1 mg/kg, 1 h, individual animals 1-3, read-out: Brain concentration) of 269 ng/g, a concentration at 1 h ([2]; male, CD-1, mouse, brain, 1 mg/kg, 1 h, read-out: Brain concentration, Mean) of 254 ng/g and a concentration at 2 h ([2]; male, CD-1, mouse, brain, 1 mg/kg, 2 h, individual animals 1-3, read-out: Brain concentration) of 159 ng/g. It also gave a concentration at 2 h ([2]; male, CD-1, mouse, brain, 1 mg/kg, 2 h, read-out: Brain concentration, Mean) of 180 ng/g, a concentration at 4 h ([2]; male, CD-1, mouse, brain, 1 mg/kg, 4 h, individual animals 1-3, read-out: Brain concentration) of 120 ng/g and a concentration at 4 h ([2]; male, CD-1, mouse, brain, 1 mg/kg, 4 h, read-out: Brain concentration, Mean) of 159 ng/g. The concentration at 6 h ([2]; male, CD-1, mouse, brain, 1 mg/kg, 6 h, individual animals 1-3, read-out: Brain concentration) was 91.2 ng/g, the concentration at 6 h ([2]; male, CD-1, mouse, brain, 1 mg/kg, 6 h, read-out: Brain concentration, Mean) was 117 ng/g and the concentration at 8 h ([2]; male, CD-1, mouse, brain, 1 mg/kg, 8 h, individual animals 1-3, read-out: Brain concentration) was 110 ng/g. The concentration at 8 h ([2]; male, CD-1, mouse, brain, 1 mg/kg, 8 h, read-out: Brain concentration, Mean) was 114 ng/g, the Kp at 1 h ([2]; male, CD-1, mouse, brain/plasma, iv, 1 mg/kg, 1 h, individual animals 1-3, read-out: Brain/plasma concentration ratio) was 0.714 and the Kp at 1 h ([2]; male, CD-1, mouse, brain/plasma, iv, 1 mg/kg, 1 h, read-out: Brain/plasma concentration ratio, Mean) was 0.675. It also gave a Kp at 2 h ([2]; male, CD-1, mouse, brain/plasma, iv, 1 mg/kg, 2 h, individual animals 1-3, read-out: Brain/plasma concentration ratio) of 0.572, a Kp at 2 h ([2]; male, CD-1, mouse, brain/plasma, iv, 1 mg/kg, 2 h, read-out: Brain/plasma concentration ratio, Mean) of 0.657 and a Kp at 4 h ([2]; male, CD-1, mouse, brain/plasma, iv, 1 mg/kg, 4 h, individual animals 1-3, read-out: Brain/plasma concentration ratio) of 0.8. It also gave a Kp at 4 h ([2]; male, CD-1, mouse, brain/plasma, iv, 1 mg/kg, 4 h, read-out: Brain/plasma concentration ratio, Mean) of 0.776, a Kp at 6 h ([2]; male, CD-1, mouse, brain/plasma, iv, 1 mg/kg, 6 h, individual animals 1-3, read-out: Brain/plasma concentration ratio) of 0.86 and a Kp at 6 h ([2]; male, CD-1, mouse, brain/plasma, iv, 1 mg/kg, 6 h, read-out: Brain/plasma concentration ratio, Mean) of 0.767. For the same compound, the Kp ([2]; male, CD-1, mouse, brain/plasma, iv, 1 mg/kg, i.v. 1 mg/kg, read-out: Brain/plasma AUC0-tlast ratio) was 0.71, the Cmax [2, 3] was 784 ng/g and the Tmax [2, 3] was 5 min. For the same compound, the half-life ([2]; male, CD-1, mouse, iv, brain, i.v. 1 mg/kg, read-out: Apparent t1/2 (converted)) was 8.27 h, the MRT inf ([2]; male, CD-1, mouse, iv, brain, i.v. 1 mg/kg, read-out: MRT0-inf) was 11.2 h and the “Curve Bottom” value (ADORA2A; Antagonist format) was 1.23. The “Curve Top” value (ADORA2A; Antagonist format) was 99, the Hill (ADORA2A; Antagonist format) was 1.4103 and the pIC50 (ADORA2A; Antagonist format, EC80 0.021 μM NECA, read-out: RC50 (IC50)) was 7.05. For the same compound, the Emax (ADORA2A; Antagonist format, read-out: Max Response) was 98.1% and the pIC50 (ADORA2A; text to FIGS. 1-4, 6, antagonist mode, read-out: half maximal inhibitory concentration (IC50)) was 7.05 and 7.12.
